Laboratory results reported in article PMC12636295 (bioRxiv, 2025).

Biological target: T1, SCP2 (human sterol carrier protein 2) (Homo sapiens, UniProt P22307)
T1 sequence (P22307 425-547): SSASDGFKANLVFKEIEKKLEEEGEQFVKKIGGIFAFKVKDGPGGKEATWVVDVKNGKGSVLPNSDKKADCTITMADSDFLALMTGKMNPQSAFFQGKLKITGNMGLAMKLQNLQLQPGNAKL
Test: NBD-SA fluorescence displacement titration
Format: binding

O=C(O)C(F)(F)C(F)(F)C(F)(F)C(F)(F)C(F)(F)C(F)(F)C(F)(F)C(F)(F)C(F)(F)C(F)(F)C(F)(F)C(F)(F)C(F)(F)C(F)(F)C(F)(F)F [PFHxDA]
Ki: 8.4 ± 0.6 µM
